Laboratory results from US8207174B2, “Aryloxypropanolamines, methods of preparation therof and use of aryloxypropanolamines as medicaments” (4SC AG, priority 2007, dated 2012).

Legend:
[1] = molecular target: T1, human recombinant adrenergic β3 receptor (Homo sapiens, UniProt P13945); experiment: Cyclic AMP accumulation assay (HTRF), agonist mode; format: cell-based; details: agonistic activity at β3-adrenoceptor, CHO-K1 β3 cells, cAMP
T1 construct: host or cells: CHO-K1
Method: (Cyclic Amp Accumulation Assay)
Functional response of cells (agonistic or antagonistic) to the test compounds was tested by measurement of cyclic AMP formation. Therefore cyclic AMP was quantitatively determined by HTRF® (Homogeneous Time-Resolved Fluorescence) technology (Cisbio International) using a stable cell line CHO-K1 β3 expressing the human recombinant adrenergic β3 receptor (Euroscreen).
The CHO-K1 β3 cell line was maintained in Ham's F12 medium containing 10% fetal bovine serum, 400 μg/ml geneticin (G418), 100 U/mL penicillin and 100 μg/mL streptomycin (all PAA) at 37° C. and 5% CO2. Cells in mid-log phase, grown in media without antibiotics during 18 h prior to the experiment, were detached by gentle flushing with 2 ml PBS-EDTA pH 7.5 (Cambrex) and resuspended in 8 mL of medium without antibiotics. Cells were then counted, centrifuged in a 30 mL PP tube (Corning) at 2000 rpm for 1 min and resuspended in HBSS/20 mM HEPES/0.05% BSA buffer (all PAA) including 1 mM IBMX (Sigma). Cells were then dispensed at 3.2×10^5−3.6×10^5 cells/well in black 96-half well microtiter plates (Corning). After addition of the test compounds for dose response curves the plates were incubated for 10 min at room temperature.
cAMP HTRF® Kit reagents were then added as recommended by the manufacturer and plates were sealed with plate sealer. After 1 hour of incubation the plates were read in a Tecan Ultra Reader using the “multilabeling” option of Tecan Xfluor4 software with the following parameters, excitation filter 320 nm, mirror dichroic2, lag time 150 μs, integration time 500 μs, number of flashes 10, optimal gain and z-position. For measurement 1 an emission filter at 620 nm and for measurement 2 an emission filter at 665 nm was chosen.
EC50 value calculation for the agonist assay and IC50 value calculation for the antagonist assay, respectively, were performed with the MS Excel Solver function based on a four-parameter fit.

[2] = tested on: β3 over β1- and β2-adrenoceptors; experiment: Overall selectivity A×B from radioligand binding (β1, β2, β3) and functional β3 assay; design: species or system human; details: A=Ki(β1)/Ki(β3); B=Ki(β2)/EC50(β3); overall = A multiplied by B
Method: Selectivity for β3 over the other two adrenoceptors was thus defined as:
A) selectivity factor for β3 over β1=Ki(β1)/Ki(β3);
B) selectivity factor for β3 over β2=Ki(β2)/EC50(β3);
overall selectivity was determined as factor A) multiplied by factor B)
Membrane preparations containing human β1-, β2- or β3-adrenergic receptors were purchased from Euroscreen.
Determination of IC50 deployed a competition binding experiment where an unlabeled test compound competes with the radioligand for the receptor's binding site.
For competition binding experiments 0.1 μg/μL β3 membranes were pre-incubated with the respective compounds at r.t. for 10 minutes. The binding buffer consisted of 25 mM Hepes, 1 mM EDTA, 0.5% BSA pH 7.4. All incubation steps were done in a 96 well Masterblock PP/1 mL (Greiner), the total assay volume was 100 μL.
The reaction mixtures were transferred to a 96 well UnifilterGF/B filter plate (Millipore), pre-soaked in 0.5% BSA, using the PerkinElmer filtermate. Each well was washed with 8×1 mL ice cold binding buffer supplemented with 0.5M NaCl. The GF/B filter plates were dried for 5 min on the filtermate. To each well, 50 μL OptiPhase scintillation cocktail (PerkinElmer) was added and incubated at r.t. for 10 min.
Bound radioactivity was quantified in a Wallac-Microbeta plate reader (PerkinElmer). Each well was counted for 2 min in top-count mode.
For competition binding experiments 0.25 μg/well β1 or 0.5 μg/well β2 membranes were pre-incubated with the respective compounds at r.t. for 10 minutes. […] All incubation steps were done in a 96 well Masterblock PP/1 mL (Greiner), the total assay volume was 250 μL.
The reaction mixtures were transferred to a 96 well UnifilterGF/B filter plate (Millipore), pre-soaked in 0.5% PEI, using the PerkinElmer filtermate, Each well was wash with 8×1 mL ice cold binding buffer. The GF/B filter plates were dried for 5 min on the filtermate. To each well 50 μL OptiPhase scintillation cocktail (PerkinElmer) was added and incubated at r.t. for 10 min.
Bound radioactivity was quantified in a Wallac-Microbeta plate reader (PerkinElmer). Each well was counted for 2 min in top-count mode

T1 sequence (P13945 whole entry): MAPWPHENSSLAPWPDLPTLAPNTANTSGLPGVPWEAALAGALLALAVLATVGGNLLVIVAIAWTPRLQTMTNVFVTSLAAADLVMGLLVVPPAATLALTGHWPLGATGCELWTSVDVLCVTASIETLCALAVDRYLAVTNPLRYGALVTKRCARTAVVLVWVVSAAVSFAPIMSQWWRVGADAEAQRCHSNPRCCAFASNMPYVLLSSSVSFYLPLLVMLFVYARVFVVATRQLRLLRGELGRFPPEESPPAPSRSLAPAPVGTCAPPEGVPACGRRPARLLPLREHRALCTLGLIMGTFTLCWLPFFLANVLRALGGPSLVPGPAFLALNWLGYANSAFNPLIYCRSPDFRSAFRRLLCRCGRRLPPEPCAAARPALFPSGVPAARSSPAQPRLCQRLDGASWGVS

SMILES	EC50 [1] [nM]	selectivity [A x B] [2]
COC(=O)c1ccc(OCC(O)CNC2CCN(c3ncnc4scc(-c5ccccc5)c34)CC2)cc1O (stereo not drawn) [Example 28, methyl 2-hydroxy-4-(2-hydroxy-3-(1-(5-phenylthieno[2,3-d]pyrimidin-4-yl)piperidin-4-ylamino)propoxy)benzoate]	> 100	0 (A×B<10)
CCOC(=O)c1cc(OCC(O)CNC2CCN(c3ncnc4scc(-c5ccccc5)c34)CC2)ccc1O (stereo not drawn) [Example 12]	> 100	0 (A×B<10)
CCOC(=O)c1cc(OCC(O)CNC2CCN(c3ncnc4scc(C)c34)CC2)ccc1O (stereo not drawn) [Example 17, ethyl 2-hydroxy-5-(2-hydroxy-3-(1-(5-methylthieno[2,3-d]pyrimidin-4-yl)piperidin-4-ylamino)propoxy)benzoate]	> 100	0 (A×B<10)
OCc1cc(OCC(O)CNC2CCN(C3=NCNc4scc(-c5ccccc5)c43)CC2)ccc1O (stereo not drawn) [Example 14, 4-(2-hydroxy-3-(1-(5-phenyl-1,2-dihydrothieno[2,3-d]pyrimidin-4-yl)piperidin-4-ylamino)propoxy)-2-(hydroxymethyl)phenol]	0.01 to 0.99	+++ (A×B>1000)
Cc1cc(C)nc(N2CCC(NCC(O)COc3ccc(O)c(CO)c3)CC2)n1 (stereo not drawn) [Example 24, 4-(3-(1-(4,6-dimethylpyrimidin-2-yl)piperidin-4-ylamino)-2-hydroxypropoxy)-2-(hydroxymethyl)phenol]	1 to 10	+++ (A×B>1000)
CCOC(=O)c1cc(OCC(O)CNC2CCN(c3ncnc4sc(-c5ccccc5)c(C)c34)CC2)ccc1O (stereo not drawn) [Example 20, ethyl 2-hydroxy-5-(2-hydroxy-3-(1-(5-methyl-6-phenylthieno[2,3-d]pyrimidin-4-yl)piperidin-4-ylamino)propoxy)benzoate]	> 100	0 (A×B<10)
CCOC(=O)c1cc(O)ccc1OCC(O)CNC1CCN(c2ncnc3scc(-c4ccccc4)c23)CC1 (stereo not drawn) [Example 32, ethyl 5-hydroxy-2-(2-hydroxy-3-(1-(5-phenylthieno[2,3-d]pyrimidin-4-yl)piperidin-4-ylamino)propoxy)benzoate]	1 to 10	+ (A×B=10-100)
Cc1nc(N2CCC(NCC(O)COc3ccc(O)cc3)CC2)c2ccsc2n1 (stereo not drawn) [Example 5, 4-(2-hydroxy-3-(1-(2-methylthieno[2,3-d]pyrimidin-4-yl)piperidin-4-ylamino)propoxy)phenol]	11 to 100	++ (A×B=101-1000)
CCOC(=O)c1cc(OCC(O)CNC2CCN(c3ncnc4scc(-c5cccs5)c34)CC2)ccc1O (stereo not drawn) [Example 25, ethyl 2-hydroxy-5-(2-hydroxy-3-(1-(5-(thiophen-2-yl)thieno[2,3-d]pyrimidin-4-yl)piperidin-4-ylamino)propoxy)benzoate]	> 100	0 (A×B<10)
Cc1nc(N2CCC(NCC(O)COc3ccc(O)c(CO)c3)CC2)c2ccsc2n1 (stereo not drawn) [Example 19, 4-(2-hydroxy-3-(1-(2-methylthieno[2,3-d]pyrimidin-4-yl)piperidin-4-ylamino)propoxy)-2-(hydroxymethyl)phenol]	1 to 10	+++ (A×B>1000)
Cc1cc(C)nc(N2CCC(NCC(O)COc3ccc(O)cc3)CC2)n1 (stereo not drawn) [Example 8, 4-(3-(1-(4,6-dimethylpyrimidin-2-yl)piperidin-4-ylamino)-2-hydroxypropoxy)phenol]	11 to 100	0 (A×B<10)
CN(CC(O)COc1ccc(O)cc1)C1CCN(c2ncnc3scc(-c4ccc(F)cc4)c23)CC1 (stereo not drawn) [Example 11, 4-(3-((1-(5-(4-fluorophenyl)thieno[2,3-d]pyrimidin-4-yl)piperidin-4-yl)(methyl)amino)-2-hydroxypropoxy)phenol]	> 100	0 (A×B<10)
CCOC(=O)c1cc(OCC(O)CNC2CCN(c3ncnc4ccsc34)CC2)ccc1O (stereo not drawn) [Example 22, ethyl 2-hydroxy-5-(2-hydroxy-3-(1-(thieno[3,2-d]pyrimidin-4-yl)piperidin-4-ylamino)propoxy)benzoate]	> 100	0 (A×B<10)

More lines, now with the values ahead:

EC50 [1] [nM]	selectivity [A x B] [2]	SMILES
> 100	0 (A×B<10)	Cc1c(-c2ccccc2)sc2ncnc(N3CCC(NCC(O)COc4cccc(CO)c4)CC3)c12 (stereo not drawn) [Example 39, 1-(3-(hydroxymethyl)phenoxy)-3-(1-(5-methyl-6-phenylthieno[2,3-d]pyrimidin-4-yl)piperidin-4-ylamino)propan-2-ol]
> 100	0 (A×B<10)	COC(=O)c1ccc(O)cc1OCC(O)CNC1CCN(c2ncnc3scc(-c4ccccc4)c23)CC1 (stereo not drawn) [Example 34, methyl 4-hydroxy-2-(2-hydroxy-3-(1-(5-phenylthieno[2,3-d]pyrimidin-4-yl)piperidin-4-ylamino)propoxy)benzoate]
> 100	+ (A×B=10-100)	OCc1ccc(OCC(O)CNC2CCN(c3ncnc4scc(-c5ccc(F)cc5)c34)CC2)cc1 (stereo not drawn) [Example 44, 1-(1-(5-(4-fluorophenyl)thieno[2,3-d]pyrimidin-4-yl)piperidin-4-ylamino)-3-(4-(hydroxymethyl)phenoxy)propan-2-ol]
> 100	0 (A×B<10)	Cc1c(-c2ccccc2)sc2ncnc(N3CCC(N(C)CC(O)COc4cccc(CO)c4)CC3)c12 (stereo not drawn) [Example 42, 1-(3-(hydroxymethyl)phenoxy)-3-(methyl(1-(5-methyl-6-phenylthieno[2,3-d]pyrimidin-4-yl)piperidin-4-yl)amino)propan-2-ol]
11 to 100	+ (A×B=10-100)	OCc1cccc(OCC(O)CNC2CCN(c3ncnc4scc(-c5ccc(F)cc5)c34)CC2)c1 (stereo not drawn) [Example 40, 1-(1-(5-(4-fluorophenyl)thieno[2,3-d]pyrimidin-4-yl)piperidin-4-ylamino)-3-(3-(hydroxymethyl)phenoxy)propan-2-ol]
> 100	+ (A×B=10-100)	CN(CC(O)COc1cccc(CO)c1)C1CCN(c2ncnc3scc(-c4ccccc4)c23)CC1 (stereo not drawn) [Example 41, 1-(3-(hydroxymethyl)phenoxy)-3-(methyl(1-(5-phenylthieno[2,3-d]pyrimidin-4-yl)piperidin-4-yl)amino)propan-2-ol]
> 100	0 (A×B<10)	Cc1nc(N2CCC(NCC(O)COc3cccc(CO)c3)CC2)c2ccsc2n1 (stereo not drawn) [Example 38, 1-(3-(hydroxymethyl)phenoxy)-3-(1-(2-methylthieno[2,3-d]pyrimidin-4-yl)piperidin-4-ylamino)propan-2-ol]
11 to 100	0 (A×B<10)	Cc1csc2ncnc(N3CCC(NCC(O)COc4cccc(CO)c4)CC3)c12 (stereo not drawn) [Example 37, 1-(3-(hydroxymethyl)phenoxy)-3-(1-(5-methylthieno[2,3-d]pyrimidin-4-yl)piperidin-4-ylamino)propan-2-ol]
